Source: patent US20100015079A1, “Cosmetic Compositions for the Protection or Regeneration of Hair or Skin” (Institut Dr. Schrader, priority 2006, published 2010)

Test: UVA-induced photon emission (chemiluminescence, ICL-H) of permanently waved hair tresses after treatment with rinse-off formulation
Set-up: species or system human
Details: Example 1; for UVA-induced photon emission (chemiluminescence), measure of hair damage: measured two days after treatment, damage by permanent wave alone 555%
Method: The effect of taurinamide hydrochloride on the regeneration of permanently waved hair was investigated. For this, three tresses of European hair (left natural, dense, color 7.0; Kerling) were subjected to a permanent wave treatment. The permanent wave solution had the following composition:
The tresses were washed for 1 min in a shaking machine (13.5% Texapon K12P in demineralized water) and rinsed for 2 minutes with lukewarm water. The tresses were saturated with permanent waving solution until drop-wet (10 ml for 3 tresses). After a contact time of 30 minutes, they were rinsed for 3 minutes with lukewarm water. The treatment with the permanent waving solution was repeated three times. The drop-wet tresses were then saturated with neutralizing solution (10 ml for 3 tresses). After a contact time of 10 minutes, they were rinsed for 3 minutes with lukewarm water.
To determine the effect of taurinamide, the following rinse-off formulations which comprised varying amounts of taurinamide hydrochloride were used:
The formulations were applied to the tresses from both sides using a paint brush on a glass plate (30 g for 3 tresses). After a contact time of 10 minutes, they were rinsed for 3 minutes with lukewarm water. The hair was then left to dry in the air.
Two days after the treatment, the UVA-induced photon emission (chemiluminescence) was measured. The photon emission is a measure of the hair damage. It was measured in accordance with the method described by S. Benard, H. Nerenz, M. Rohr and A. Schrader in IFSCC magazine Vol. 4 (2001), 185-189 (ICL-H (Induced Chemiluminescence of Human Hair) A new method for quantitative analysis of hair stress).

In the case of `Cl.NCCS(N)(=O)=O` [Taurinamide, taurinamide hydrochloride], the “UVA-induced photon emission (chemiluminescence), measure of hair damage” value (shortened to “UVA-induced photon emission”) (0.1% by wt. taurinamide HCl rinse-off formulation 1.1, 10 min contact) is reported as 329%, the “UVA-induced photon emission” value (0.5% by wt. taurinamide HCl rinse-off formulation 1.2, 10 min contact) is reported as 209% and the “UVA-induced photon emission” value (1% by wt. taurinamide HCl rinse-off formulation 1.3, 10 min contact) is reported as 185%. For the same compound, the “UVA-induced photon emission” value (5% by wt. taurinamide HCl rinse-off formulation 1.4, 10 min contact) was 118% and the “effect of treatment on hair damage (in words)” value (permanently waved hair, 0.1-5% taurinamide formulations) was “significantly reduces hair damage”.
